Patent publication US9617276B2, “Compounds and methods for treating AIDS and HIV infections” (priority 2009, dated 2017)
Where “and” joins values, the source holds several entries; their conditions need not be identical. Identical values can stand only once. Like-named read-outs stand apart in the source and are kept apart here.

Experiments:
HIV-2EHO = experiment: drug susceptibility, MT-2 cells, MTT assay, HIV-2EHO; type: cell-based; conditions: Human immunodeficiency virus 2, MT2, read-out: EC50 (μM) for HIV-2EHO
Protocol: (§1) All assays were performed in duplicate or triplicate. […] All assays were performed in duplicate or triplicate.
(§2) Each selectivity index denotes a ratio of CC50 to EC50 against HIV-1LAI N.D., not done.

HIV-1MDR/B = type: cell-based; conditions: for EC50 (μM), HIV-1MDR/B (SI): PHA-PBMCs, p24 Gag; for n-fold change of EC50, HIV-1MDR/B: compared to wild-type HIV-1ERS104pre
Protocol: (§3) The susceptibility of HIV-1LAI and primary HIV-1 isolates to various drugs were determined as described previously (Koh et al. 2003 Antimicrob Agents Chemother 47:3123-9). Briefly, MT-2 cells (2×10^4/ml) were exposed to 100 50% tissue culture infectious doses (TCID50S) of HIV-1LAI, in the presence or absence of various concentrations of drugs in 96-well microculture plates and were incubated at 37° C. for 7 days. After 100 μl of the medium was removed from each well, 3-(4,5-dimetylthiazol-2-yl)-2,5-diphenyltetrazolium bromide (MTT) solution (10 μl, 7.5 mg/ml in phosphate-buffered saline) was added to each well in the plate, followed by incubation at 37° C. for 3 h. […] All assays were performed in duplicate or triplicate. To determine the susceptibility of primary HIV-1 isolates to drugs, phytohemagglutinin-activated peripheral blood mononuclear cells (PHA-PBMCs; 106/ml) were exposed to 50 TCID50S of each. The target cells were exposed to HIV-1104pre or drug-resistant HIV-1 in the presence or absence of various concentrations of drugs and were incubated for 7 days. Upon the conclusion of the culture, the amounts of p24 Gag protein in the supernatants were determined using a fully automated chemiluminescent enzyme immunoassay system (Lumipulse F; Fujirebio Inc., Tokyo, Japan) (Maeda et al. 2001 J Biol Chem 276:35194-200). To determine the drug susceptibility of certain laboratory HIV-1 strains, MT-4 cells were used as target cells. In brief, MT-4 cells (10^5/ml) were exposed to 100 TCID50S of drug-resistant HIV-1 strains in the presence or absence of various concentrations of drugs and on day 7 of culture, the supernatant was harvested and the amounts of p24 Gag protein were determined. […] All assays were performed in duplicate or triplicate.
(§4) These clinical strains contained 9 to 14 amino acid substitutions in the protease-encoding region, which have reportedly been associated with HIV-1 resistance to various PIs.
(§5) Amino acid substitutions identified in the protease-encoding region compared to the consensus type B sequence cited from the Los Alamos database include L63P in HIV-1ERS104pre; L10I, K14R, L33I, M36I, M46I, F53I, K55R, I62V, L63P, A71V, G73S, V82A, L90M, and I93L in HIV-1MDR/B; L10I, I15V, K20R, L24I, M36I, M46L, I54V, I62V, L63P, K70Q, V82A, and L89M in HIV-1MDR/C; L10I, V11I, T12E, I15V, L19I, R41K, M46L, L63P, A71T, V82A, and L90M in HIV-1MDR/G; L10I, K14R, R41K, M46L, I54V, L63P, A71V, V82A, L90M, I93L in HIV-1MDR/TM; L10I, K43T, M46L, I54V, L63P, A71V, V82A, L90M, and Q92K in HIV-1MDR/MM; L10I, L24I, I33F, E35D, M36I, N37S, M46L, I54V, R57K, I62V, L63P, A71V, G73S, and V82A in HIV-1MDR/JSL. HIV-1ERS104pre served as a source of wild-type HIV-1. EC50s were determined by using PHA-PBMs as target cells, and inhibition of p24 Gag protein production by each drug was used as an end point. Numbers in parentheses represent n-fold changes of EC50s for each isolate compared to EC50s for wild-type HIV-1ERS104pre.

HIV-1MDR/C = type: cell-based; conditions: for EC50 (μM), HIV-1MDR/C (SI): PHA-PBMCs, p24 Gag; for n-fold change of EC50, HIV-1MDR/C: compared to wild-type HIV-1ERS104pre
Protocol: as §3, §4, §5

HIV-1MDR/TM = type: cell-based; conditions: for EC50 (μM), HIV-1MDR/TM (SI): PHA-PBMCs, p24 Gag; for n-fold change of EC50, HIV-1MDR/TM: compared to wild-type HIV-1ERS104pre
Protocol: as §3, §4, §5

HIV-1MDR/G = type: cell-based; conditions: for EC50 (μM), HIV-1MDR/G (SI): PHA-PBMCs, p24 Gag; for n-fold change of EC50, HIV-1MDR/G: compared to wild-type HIV-1ERS104pre
Protocol: as §3, §4, §5

HIV-1 = experiment: antiviral assay (IC50); type: cell-based; conditions: read-out: IC50
Protocol: The inhibitory potencies of acyclic and cyclic inhibitors were measured by the assay protocol of Toth and Marshall (Toth, M. V.; Marshall, G. R. A simple, continuous fluorometric assay for HIV protease. Int. J. Pep. Protien Res. 1990, 36, 544-55).

HIV-1LAI = experiment: drug susceptibility, MT-2 cells, MTT assay, HIV-1LAI; type: cell-based; conditions: for EC50: Human immunodeficiency virus 1, MT2, read-out: EC50 (μM) for HIV-1LAI; for Selectivity Index: ratio of CC50 to EC50 against HIV-1LAI
Protocol: as §1, §2

cytotoxicity CC50 = type: cell-based, Human; conditions: human
[1] = system: HIV-1ERS104pre (wild-type); experiment: p24 Gag inhibition in PHA-PBMCs, HIV-1ERS104pre; type: cell-based; conditions: mean ± 1 SD
Protocol: as §3, §4, §5

HIV-1SQV5μM = experiment: microbe, parasite or virus in culture; type: cell-based; conditions: for EC50: Human immunodeficiency virus 1, MT4, read-out: EC50 (μM), HIV-1SQV5 μM; for n-fold change in EC50, HIV-1SQV5 μM: compared to wild-type HIV-1NL4-3
Protocol: as §3
(§6) Numbers in parentheses represent n-fold changes in EC50s for each isolate compared to the EC50s for wild-type HIV-1NL4-3.

HIV-1NFV5μM = experiment: microbe, parasite or virus in culture; type: cell-based; conditions: for EC50: Human immunodeficiency virus 1, MT4, read-out: EC50 (μM), HIV-1NPV5 μM; for n-fold change in EC50, HIV-1NPV5 μM: compared to wild-type HIV-1NL4-3
Protocol: as §3, §6

HIV-1LPV5μM = experiment: microbe, parasite or virus in culture; type: cell-based; conditions: for EC50: Human immunodeficiency virus 1, MT4, read-out: EC50 (μM), HIV-1LPV5 μM; for n-fold change in EC50, HIV-1LPV5 μM: compared to wild-type HIV-1NL4-3
Protocol: as §3, §6

HIV-2ROD = experiment: drug susceptibility, MT-2 cells, MTT assay, HIV-2ROD; type: cell-based; conditions: Human immunodeficiency virus 2, MT2, read-out: EC50 (μM) for HIV-2ROD
Protocol: as §1, §2

[2] = system: multidrug-resistant clinical HIV-1 isolates (HIV-1MDR); experiment: microbe, parasite or virus in culture; type: cell-based; conditions: Human immunodeficiency virus 1, read-out: greatest EC50 value against the clinical isolates
Protocol: as §3, §4, §5

Row | SMILES | EC50 (HIV-2EHO) | EC50 (μM), HIV-1MDR/B (SI) (HIV-1MDR/B) | n-fold change of EC50, HIV-1MDR/B (HIV-1MDR/B) | EC50 (μM), HIV-1MDR/C (SI) (HIV-1MDR/C) | n-fold change of EC50, HIV-1MDR/C (HIV-1MDR/C) | EC50 (μM), HIV-1MDR/TM (SI) (HIV-1MDR/TM) | n-fold change of EC50, HIV-1MDR/TM (HIV-1MDR/TM) | EC50 (μM), HIV-1MDR/G (SI) (HIV-1MDR/G) | n-fold change of EC50, HIV-1MDR/G (HIV-1MDR/G) | EC50 (HIV-1LAI) | Selectivity Index (HIV-1LAI) | EC50 (HIV-1SQV5μM) | n-fold change in EC50, HIV-1SQV5 μM (HIV-1SQV5μM) | EC50 (HIV-1NFV5μM) | n-fold change in EC50, HIV-1NPV5 μM (HIV-1NFV5μM) | EC50 (HIV-1LPV5μM) | n-fold change in EC50, HIV-1LPV5 μM (HIV-1LPV5μM) | EC50 (HIV-2ROD) | EC50 (μM), HIV-1ERS104pre (wild-type SI) [1] | further results
1 | COc1ccc2c(c1)OCCCC=CCCCCN(CC(O)C(Cc1ccccc1)NC(=O)OC1COC3OCCC13)S2(=O)=O (stereo not drawn) [Compound 14b] | 0.018 ± 0.013 µM | 0.089 ± 0.016 µM | (13) | 0.029 ± 0.001 µM | (4) | 0.072 ± 0.014 µM | (10) | 0.028 ± 0.004 µM | (4) | 0.004 ± 0.001 µM | 8,280 | 0.046 ± 0.021 µM | (5) | 0.041 ± 0.006 µM | (5) | 0.35 ± 0.019 µM | (39) | 0.025 ± 0.002 µM | – | IC50 (HIV-1; Human immunodeficiency virus 1, Table 2): < 10 nM; IC50 (HIV-1; Human immunodeficiency virus 1): < 49 nM; CC50 (cytotoxicity CC50): 33100 ± 2500 nM; EC50 (μM), HIV-1ERS104pre (wild-type SI) ([1]; listed as GRL-286): 0.007 µM and 0.007 ± 0.002 µM
2 | COC(=O)N[C@H](C(=O)N[C@@H](Cc1ccccc1)[C@@H](O)CN(Cc1ccc(-c2ccccn2)cc1)NC(=O)[C@@H](NC(=O)OC)C(C)(C)C)C(C)(C)C [AZV, Atazanavir] | – | 0.20 ± 0.10 µM | (100) | 0.065 ± 0.008 µM | (33) | 0.065 ± 0.008 µM | (33) | 0.033 ± 0.024 µM | (17) | – | – | 0.21 ± 0.065 µM | (53) | 0.027 ± 0.005 µM | (7) | 0.036 ± 0.001 µM | (9) | – | 0.002 ± 0.001 µM | –
3 | CCC[C@@]1(CCc2ccccc2)CC(O)=C([C@H](CC)c2cccc(NS(=O)(=O)c3ccc(C(F)(F)F)cn3)c2)C(=O)O1 [TPV, Tipranavir] | 0.3 ± 0.15 µM | 0.18 ± 0.009 µM | (2) | 0.38 ± 0.079 µM | (3) | 0.38 ± 0.05 µM | (3) | 0.24 ± 0.08 µM | (2) | 0.17 ± 0.005 µM | 320 | 0.022 ± 0.009 µM | (0.1) | 0.039 ± 0.041 µM | (0.1) | 0.31 ± 0.03 µM | (1) | 0.33 ± 0.07 µM | 0.12 ± 0.03 µM | EC50 [2]: 380 nM
